Each structure is given as a SMILES string. Counter-ions that a name gives are not always drawn.

These results are taken from article PMC8052950 (Journal of medicinal chemistry, 2021).

Test [1] has as its system ZIKV-FLR. Kind of test: Cellular anti-ZIKV activity in U87 cells. The class given is cell-based, Zika virus. As to conditions: for EC68 against ZIKV: in cells, values printed in nM in the text.
Test [2] has as its system ZIKV. The note with it: cited from earlier work.
The subject of test [3] is 5 selected human proteases. The note with it: at 10 μM; cited from earlier work.
The subject of test [4] is ZIKV strain HN16. As to conditions: comparable activities; cited from earlier work.
Test [5] relates to dengue virus (serotype-2, strain K0049). As to conditions: comparable activities; cited from earlier work.
Test [6] deals with WVpro (West Nile virus protease) (West Nile virus, UniProt Q9Q6P4). Kind of test: WVpro enzyme inhibition assay. The class given is biochemical.
WVpro (West Nile virus protease), sequence (Q9Q6P4 1424-1470): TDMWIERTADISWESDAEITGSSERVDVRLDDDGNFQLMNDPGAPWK
WVpro (West Nile virus protease), sequence (Q9Q6P4 1506-1675): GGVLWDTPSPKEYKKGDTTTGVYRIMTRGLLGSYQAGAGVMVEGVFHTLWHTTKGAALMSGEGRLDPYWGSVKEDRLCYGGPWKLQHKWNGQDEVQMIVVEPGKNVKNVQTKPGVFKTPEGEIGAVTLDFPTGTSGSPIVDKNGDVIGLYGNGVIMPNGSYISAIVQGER
For test [7], the target named is DV2pro (protease of dengue serotype-2) (Dengue virus type 2, UniProt P29990). Kind of test: DV2pro enzyme inhibition assay. The test is classed as biochemical, dengue virus serotype-2. As to conditions: read-out: IC50 against DV2pro; standard errors <30%.
DV2pro (protease of dengue serotype-2), sequence (P29990 1476-1645): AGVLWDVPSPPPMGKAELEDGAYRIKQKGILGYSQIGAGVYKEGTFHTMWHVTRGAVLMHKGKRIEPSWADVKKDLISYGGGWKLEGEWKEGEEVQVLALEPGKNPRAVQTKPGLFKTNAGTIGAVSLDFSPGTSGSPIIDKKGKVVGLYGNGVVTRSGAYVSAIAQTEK
DV2pro (protease of dengue serotype-2), sequence (P29990 1394-1440): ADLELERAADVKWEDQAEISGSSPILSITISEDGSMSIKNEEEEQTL

As for `NCc1ccc(-c2ncc(OCC3CCNCC3)nc2-c2ccc(C3CCOCC3)cc2)cc1` [Compound 103, (4-(5-(Piperidin-4-ylmethoxy)-3-(4-(tetraHydro-2H-pyran-4-yl)phenyl)pyrazin-2-yl)phenyl)methanamine hydrochloride], in test [1], the “EC68 against ZIKV” value fell in the range of 300 to 600 nM.
Regarding `NCc1ccc(-c2ncc(OCC3CCNCC3)nc2-c2ccc(-c3ccoc3)cc2)cc1` [Compound 47, (4-(3-(4-(Furan-3-yl)phenyl)-5-(piperidin-4-ylmethoxy)pyrazin-2-yl)phenyl)methanamine hydrochloride], the “In vivo antiviral activity” value in test [2] (mouse model of ZIKV infection) is “strong in vivo antiviral activity”. In addition, the “Survival of the experimental mice” value in test [2] (mouse, 30 mg/kg for 3 days) is listed as “significantly prolonged survivals”. In addition, the “Inhibition of 5 selected human proteases” value in test [3] is listed as “did not inhibit”. In addition, the “Inhibition of replication of ZIKV strain HN16” value in test [4] was “potently inhibit replication”. In addition, the EC68 in test [1] (Zika virus, U-87 MG, 48 h, read-out: ZIKV-FLR EC68) lay in the range of 0.3 to 0.6 µM. Besides, the “EC68 against ZIKV” value in test [1] fell in the range of 300 to 600 nM. Besides, in test [5], the “Inhibition of replication of dengue virus (serotype-2, strain K0049)” value is “potently inhibit replication”.
`NCc1ccc(-c2ncc(OCC3CCNCC3)nc2-c2ccc(-c3ccncc3)cc2)cc1` [Compound 45, (4-(5-(Piperidin-4-ylmethoxy)-3-(4-(pyridin-4-yl)phenyl)pyrazin-2-yl)phenyl)methanamine hydrochloride] showed an IC50 in test [6] of over 50 µM.
Regarding `NCc1ccc(-c2cc(CNCC3CCNCC3)sc2-c2ccc(CN)cc2)cc1` [Compound 20, ((5-(((Piperidin-4-ylmethyl)amino)methyl)thiophene-2,3-diyl)bis(4,1-phenylene))dimethanamine Hydrochloride], the IC50 in test [6] and in test [7] was over 50 µM each time.
`NCc1ccc(-c2ncc(OCC3CCNCC3)nc2-c2ccc(-c3cn[nH]c3)cc2)cc1` [Compound 46] had an IC50 in test [6] of 0.12 µM.
On the same count and under the same terms, under `Brc1ccc(-c2ncc(OCC3CCNCC3)nc2-c2ccc(Br)cc2)cc1` [Compound 1, 2,3-bis(4-Bromophenyl)-5-(piperidin-4-ylmethoxy)pyrazine hydrochloride] stands over 50 µM; under `NCc1ccc(-c2ncc(OCC3CCNCC3)nc2-c2ccc(Oc3ccccc3)cc2)cc1` [Compound 44, (4-(3-(4-Phenoxyphenyl)-5-(piperidin-4-ylmethoxy)pyrazin-2-yl)phenyl)methanamine hydrochloride], over 50 µM.
As to `NCc1ccc(-c2ncc(OCC3CCNCC3)nc2-c2ccc(O)cc2)cc1` [Compound 50, 4-(3-(4-(Aminomethyl)phenyl)-6-(piperidin-4-ylmethoxy)pyrazin-2-yl)phenol hydrochloride], the “Inhibition of ZIKV replication” value in test [1] (at 10 μM) is recorded as “did not inhibit ZIKV replication”.
